Several values for one entry are separate records, joined by “and”; a condition that tells them apart may be missing. Equal entries are not always repeated.
Assays:
BIRC4 BIR2 = target: T1, BIRC4 BIR2 (Homo sapiens, UniProt P98170); experiment: NanoBRET tracer titration, BIRC4 BIR2; format: cell-based; settings: single domain, n = 4; read-out: Tracer KD,app ± SEM, BIRC4 BIR2
T1 construct: G144 S253; expressed in transfected cells; host or cells: HEK293T

BIRC1 BIR1 = target: T2, BIRC1 BIR1 (Homo sapiens, UniProt Q13075); experiment: NanoBRET tracer titration, BIRC1 BIR1 (third BIR domain of BIRC1); format: cell-based; settings: third BIR domain of BIRC1 (N256-Q391), n = 4; read-out: Tracer KD,app ± SEM, BIRC1 BIR1
T2 construct: N256 Q391; expressed in transfected cells; host or cells: HEK293T
T2 sequence (Q13075 256-391): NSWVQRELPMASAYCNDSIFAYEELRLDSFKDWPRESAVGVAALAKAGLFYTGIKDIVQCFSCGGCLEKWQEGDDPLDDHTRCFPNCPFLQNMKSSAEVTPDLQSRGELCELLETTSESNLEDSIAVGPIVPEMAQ

BIRC2 BIR1 = target: T3, BIRC2 BIR1 (Homo sapiens, UniProt Q13490); experiment: NanoBRET tracer titration, BIRC2 BIR1; format: cell-based; settings: single domain, n = 4; read-out: Tracer KD,app ± SEM, BIRC2 BIR1
T3 construct: D24 S134; expressed in transfected cells; host or cells: HEK293T
T3 sequence (Q13490 24-134): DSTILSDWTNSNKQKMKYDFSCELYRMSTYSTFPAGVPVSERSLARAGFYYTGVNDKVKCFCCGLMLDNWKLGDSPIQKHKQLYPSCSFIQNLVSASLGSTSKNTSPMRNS

BIRC3 BIR1 = target: T4, BIRC3 BIR1 (Homo sapiens, UniProt Q13489); experiment: NanoBRET tracer titration, BIRC3 BIR1; format: cell-based; settings: single domain, n = 4; read-out: Tracer KD,app ± SEM, BIRC3 BIR1
T4 construct: N6 S116; expressed in transfected cells; host or cells: HEK293T
T4 sequence (Q13489 6-116): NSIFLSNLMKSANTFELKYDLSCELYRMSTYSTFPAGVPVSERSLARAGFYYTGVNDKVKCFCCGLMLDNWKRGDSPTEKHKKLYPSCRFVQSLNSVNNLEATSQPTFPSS

BIRC4 BIR1 = target: T5, BIRC4 BIR1 (Homo sapiens, UniProt P98170); experiment: NanoBRET tracer titration, BIRC4 BIR1; format: cell-based; settings: single domain, n = 4; read-out: Tracer KD,app ± SEM, BIRC4 BIR1
T5 construct: N4 Q114; expressed in transfected cells; host or cells: HEK293T
T5 sequence (P98170 4-114): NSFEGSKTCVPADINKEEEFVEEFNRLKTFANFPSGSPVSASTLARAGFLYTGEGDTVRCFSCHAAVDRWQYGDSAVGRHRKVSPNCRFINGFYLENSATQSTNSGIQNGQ

BIRC4 BIR3 = target: T6, BIRC4 BIR3 (Homo sapiens, UniProt P98170); experiment: NanoBRET tracer titration, BIRC4 BIR3; format: cell-based; settings: single domain, n = 4; read-out: Tracer KD,app ± SEM, BIRC4 BIR3
T6 construct: S245 N373; expressed in transfected cells; host or cells: HEK293T
T6 sequence (P98170 245-373): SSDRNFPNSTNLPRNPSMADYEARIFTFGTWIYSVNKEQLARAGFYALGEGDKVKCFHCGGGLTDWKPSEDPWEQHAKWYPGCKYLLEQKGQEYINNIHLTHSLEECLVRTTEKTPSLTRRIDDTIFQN

BIRC5 = target: T7, BIRC5 (Homo sapiens, UniProt O15392); experiment: NanoBRET tracer titration, BIRC5; format: cell-based; settings: full-length taken as single BIR domain construct, n = 4; read-out: Tracer KD,app ± SEM, BIRC5
T7 construct: M1 D142; expressed in transfected cells; host or cells: HEK293T
T7 sequence (O15392 whole entry, the tested form may be a part): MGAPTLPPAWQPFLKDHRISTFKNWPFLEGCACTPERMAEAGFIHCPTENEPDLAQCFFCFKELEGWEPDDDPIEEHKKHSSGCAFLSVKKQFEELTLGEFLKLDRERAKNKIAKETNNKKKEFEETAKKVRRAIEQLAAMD

BIRC2 = BIRC2 (Homo sapiens, UniProt Q13490); experiment: NanoBRET cellular target engagement, full-length BIRC2; settings: Tracer K D, full-length BIRC2, full-length
BIRC2, sequence (Q13490 whole entry): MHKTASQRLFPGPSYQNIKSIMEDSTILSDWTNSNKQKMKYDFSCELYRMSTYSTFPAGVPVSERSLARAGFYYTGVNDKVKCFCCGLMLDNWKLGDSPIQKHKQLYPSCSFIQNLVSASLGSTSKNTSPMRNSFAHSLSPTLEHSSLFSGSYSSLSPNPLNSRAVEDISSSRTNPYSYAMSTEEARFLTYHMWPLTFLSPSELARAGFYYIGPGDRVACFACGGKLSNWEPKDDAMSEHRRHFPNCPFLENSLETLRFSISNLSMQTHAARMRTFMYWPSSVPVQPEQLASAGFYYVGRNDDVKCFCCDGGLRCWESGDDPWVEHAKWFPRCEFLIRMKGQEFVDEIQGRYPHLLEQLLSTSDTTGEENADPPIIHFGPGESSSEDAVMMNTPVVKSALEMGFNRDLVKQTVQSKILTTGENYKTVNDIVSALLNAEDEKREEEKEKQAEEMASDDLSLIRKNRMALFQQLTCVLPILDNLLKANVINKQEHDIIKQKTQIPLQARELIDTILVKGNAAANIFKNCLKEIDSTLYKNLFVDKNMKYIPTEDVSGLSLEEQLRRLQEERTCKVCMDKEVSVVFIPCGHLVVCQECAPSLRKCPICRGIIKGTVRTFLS
Protocol: (§1) In brief: Constructs contained the cDNA of full-length or single domains cloned in frame with an N-terminal NanoLuc-fusion as specified in Supplementary Table S2. Plasmids were transfected into HEK293T cells using FuGENE HD (Promega, E2312) and proteins were allowed to express for 20 h. […] The corresponding transfected cells were added and reseeded at a density of 2.5^5 cells/mL after trypsinization and resuspending in Opti-MEM without phenol red (Life Technologies). […] Competitive displacement data were then graphed using GraphPad Prism 9.3 software using a normalized 3-parameter curve fit with the following equation: Y = 100/(1 + 10^(X-LogIC50)).

BIRC3 = BIRC3 (Homo sapiens, UniProt Q13489); experiment: NanoBRET cellular target engagement, full-length BIRC3
BIRC3, sequence (Q13489 whole entry): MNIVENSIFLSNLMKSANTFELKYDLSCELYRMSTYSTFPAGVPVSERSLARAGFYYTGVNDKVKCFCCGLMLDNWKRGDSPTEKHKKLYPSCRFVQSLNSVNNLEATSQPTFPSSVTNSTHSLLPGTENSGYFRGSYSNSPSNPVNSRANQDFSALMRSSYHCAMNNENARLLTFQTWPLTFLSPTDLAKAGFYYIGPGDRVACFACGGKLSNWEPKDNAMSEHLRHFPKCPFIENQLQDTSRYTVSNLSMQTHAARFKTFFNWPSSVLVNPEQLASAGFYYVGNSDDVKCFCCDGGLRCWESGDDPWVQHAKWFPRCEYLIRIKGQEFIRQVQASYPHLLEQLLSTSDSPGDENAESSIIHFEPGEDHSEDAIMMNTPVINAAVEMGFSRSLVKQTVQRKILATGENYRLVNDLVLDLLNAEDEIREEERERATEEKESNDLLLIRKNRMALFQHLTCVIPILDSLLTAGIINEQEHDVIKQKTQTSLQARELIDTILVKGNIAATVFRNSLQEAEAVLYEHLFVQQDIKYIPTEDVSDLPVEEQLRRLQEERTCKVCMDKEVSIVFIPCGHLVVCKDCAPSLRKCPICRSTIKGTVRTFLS
Protocol: as §1

BIRC4 = BIRC4 (Homo sapiens, UniProt P98170); experiment: NanoBRET cellular target engagement, full-length BIRC4
BIRC4, sequence (P98170 whole entry): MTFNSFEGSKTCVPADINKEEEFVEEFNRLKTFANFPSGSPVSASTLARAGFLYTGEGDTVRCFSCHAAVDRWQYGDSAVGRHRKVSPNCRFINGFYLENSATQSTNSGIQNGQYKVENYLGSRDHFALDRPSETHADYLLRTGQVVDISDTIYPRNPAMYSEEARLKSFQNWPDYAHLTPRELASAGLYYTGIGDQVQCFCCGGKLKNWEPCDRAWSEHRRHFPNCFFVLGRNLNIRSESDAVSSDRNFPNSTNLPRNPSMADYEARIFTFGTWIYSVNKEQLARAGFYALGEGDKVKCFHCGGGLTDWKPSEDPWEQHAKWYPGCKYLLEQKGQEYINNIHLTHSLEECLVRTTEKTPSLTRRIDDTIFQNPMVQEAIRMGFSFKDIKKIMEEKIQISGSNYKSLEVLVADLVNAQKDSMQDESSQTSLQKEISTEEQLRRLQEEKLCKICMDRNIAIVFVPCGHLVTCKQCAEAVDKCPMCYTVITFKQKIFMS
Protocol: as §1

BIRC7 = target: T8, BIRC7 (Homo sapiens, UniProt Q96CA5); experiment: NanoBRET cellular target engagement, full-length BIRC7
T8 sequence (Q96CA5 1-298): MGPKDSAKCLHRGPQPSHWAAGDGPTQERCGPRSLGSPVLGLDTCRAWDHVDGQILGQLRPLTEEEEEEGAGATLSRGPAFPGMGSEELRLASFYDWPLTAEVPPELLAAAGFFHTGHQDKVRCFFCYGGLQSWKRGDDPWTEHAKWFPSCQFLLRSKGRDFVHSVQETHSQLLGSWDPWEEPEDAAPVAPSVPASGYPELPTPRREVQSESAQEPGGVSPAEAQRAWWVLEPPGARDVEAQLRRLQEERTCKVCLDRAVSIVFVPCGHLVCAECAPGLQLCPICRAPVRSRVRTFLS
Protocol: as §1

BIRC8 = target: T9, BIRC8 (Homo sapiens, UniProt Q96P09); experiment: NanoBRET cellular target engagement, full-length BIRC8
T9 sequence (Q96P09 1-236): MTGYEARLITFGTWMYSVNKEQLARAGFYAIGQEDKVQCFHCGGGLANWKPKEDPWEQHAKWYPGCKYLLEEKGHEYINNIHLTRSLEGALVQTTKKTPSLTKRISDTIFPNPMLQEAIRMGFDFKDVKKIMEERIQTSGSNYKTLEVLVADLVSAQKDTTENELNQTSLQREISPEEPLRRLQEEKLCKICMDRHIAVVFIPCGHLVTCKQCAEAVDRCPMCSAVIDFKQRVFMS
Protocol: as §1

BIRC7 BIR = target: T10, BIRC7 BIR (Homo sapiens, UniProt Q96CA5); experiment: NanoBRET cellular target engagement, single domain BIRC7 BIR; settings: Tracer KD,app ± SEM, BIRC7 BIR, single domain, n = 4
T10 sequence (Q96CA5 70-176): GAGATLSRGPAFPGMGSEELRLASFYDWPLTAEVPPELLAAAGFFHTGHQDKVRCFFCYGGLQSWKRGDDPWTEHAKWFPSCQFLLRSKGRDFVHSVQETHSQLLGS
Protocol: as §1

BIRC8 BIR = target: T11, BIRC8 BIR (Homo sapiens, UniProt Q96P09); experiment: NanoBRET cellular target engagement, single domain BIRC8 BIR
T11 sequence (Q96P09 1-90): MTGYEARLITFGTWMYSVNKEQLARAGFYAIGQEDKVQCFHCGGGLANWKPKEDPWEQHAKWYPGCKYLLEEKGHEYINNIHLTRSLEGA

BIRC2 BIR2 = BIRC2 BIR2 (Homo sapiens, UniProt Q13490); experiment: NanoBRET cellular target engagement, single domain BIRC2 BIR2; settings: Tracer KD,app ± SEM, BIRC2 BIR2, single domain, n = 4
BIRC2 BIR2, sequence (Q13490 165-267): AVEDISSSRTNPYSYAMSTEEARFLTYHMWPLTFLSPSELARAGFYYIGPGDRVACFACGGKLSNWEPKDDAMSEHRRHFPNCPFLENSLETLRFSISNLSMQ
Protocol: as §1

BIRC3 BIR2 = BIRC3 BIR2 (Homo sapiens, UniProt Q13489); experiment: NanoBRET cellular target engagement, single domain BIRC3 BIR2; settings: Tracer KD,app ± SEM, BIRC3 BIR2, single domain, n = 4
BIRC3 BIR2, sequence (Q13489 147-253): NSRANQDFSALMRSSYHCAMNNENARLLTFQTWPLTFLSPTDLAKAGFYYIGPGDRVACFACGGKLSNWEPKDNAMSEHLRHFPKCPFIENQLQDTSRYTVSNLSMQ
Protocol: as §1

BIRC2 BIR3 = BIRC2 BIR3 (Homo sapiens, UniProt Q13490); experiment: NanoBRET cellular target engagement, single domain BIRC2 BIR3
BIRC2 BIR3, sequence (Q13490 251-372): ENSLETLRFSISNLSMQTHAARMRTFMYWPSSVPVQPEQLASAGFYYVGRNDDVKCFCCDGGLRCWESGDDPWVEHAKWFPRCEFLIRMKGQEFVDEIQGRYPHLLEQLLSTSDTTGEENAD
Protocol: as §1

BIRC3 BIR3 = BIRC3 BIR3 (Homo sapiens, UniProt Q13489); experiment: NanoBRET cellular target engagement, single domain BIRC3 BIR3; settings: Tracer KD,app ± SEM, BIRC3 BIR3, single domain, n = 4
BIRC3 BIR3, sequence (Q13489 236-360): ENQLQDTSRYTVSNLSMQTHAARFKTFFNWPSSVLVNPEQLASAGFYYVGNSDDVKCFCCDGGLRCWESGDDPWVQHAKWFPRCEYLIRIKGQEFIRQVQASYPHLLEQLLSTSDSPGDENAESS
Protocol: as §1

BIRC1 BIR[2] = target: T12, BIRC1 BIR[2] (Homo sapiens, UniProt Q13075); experiment: NanoBRET cellular target engagement, single domain BIRC1 BIR[2]; settings: Tracer KD,app ± SEM, BIRC1 BIR[2], single domain (D139-G251), n = 4
T12 sequence (Q13075 139-251): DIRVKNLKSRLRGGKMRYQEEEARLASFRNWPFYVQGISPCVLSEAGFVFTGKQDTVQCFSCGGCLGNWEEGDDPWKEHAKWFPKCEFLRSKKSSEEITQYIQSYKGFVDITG
Protocol: as §1

T1 sequence (P98170 144-253): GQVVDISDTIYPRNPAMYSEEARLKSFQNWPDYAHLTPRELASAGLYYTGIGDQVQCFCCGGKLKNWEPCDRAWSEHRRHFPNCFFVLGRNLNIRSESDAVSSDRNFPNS

- Kd (BIRC4 BIR2): > 4 µM
- Kd (BIRC1 BIR1): < 4 µM and > 4 µM and > 1 µM
- Kd (BIRC2 BIR1): 2.42 µM and > 1 µM
- Kd (BIRC3 BIR1): 2.31 µM and > 1 µM
- Kd (BIRC4 BIR1): 2.75 µM and > 1 µM
- Kd (BIRC4 BIR3): > 4 µM
- Kd (BIRC5): > 4 µM
- Kd (BIRC2): < 0.25 µM and 0.02 µM
- Kd (BIRC3; Tracer K D, full-length BIRC3, full-length): < 0.25 µM
- Kd (BIRC3; Tracer KD,app ± SEM, BIRC3, full-length, n = 4): 0.19 ± 0.03 µM
- Kd (BIRC4; Tracer K D, full-length BIRC4, full-length): < 0.25 µM
- Kd (BIRC4; Tracer KD,app ± SEM, BIRC4, full-length, n = 4): 0.04 µM
- Kd (BIRC7; Tracer K D, full-length BIRC7, full-length): < 0.25 µM
- Kd (BIRC7; Tracer KD,app ± SEM, BIRC7, full-length, n = 4): 0.25 ± 0.02 µM
- Kd (BIRC8): 1.06 ± 0.35 µM
- Kd (BIRC7 BIR): 0.54 µM and < 1 µM
- Kd (BIRC8 BIR): 2.76 ± 0.34 µM
- Kd (BIRC2 BIR2): 2.6 µM and > 1 µM
- Kd (BIRC3 BIR2): 1.67 µM and > 1 µM
- Kd (BIRC2 BIR3; Tracer K D, app, BIRC2-BIR3 domain, single domain): 0.05 ± 0.01 µM
- Kd (BIRC2 BIR3; Tracer KD,app ± SEM, BIRC2 BIR3, single domain, n = 4): < 1 µM
- Kd (BIRC3 BIR3): 0.38 µM and < 1 µM
- Kd (BIRC1 BIR[2]): 1.79 µM and > 1 µM
SMILES: CNC(C)C(=O)NC(C(=O)N1CCCC1c1nc(C(=O)c2cccc(OCCOCCOCCNC(=O)CCc3ccc4n3[B-](F)(F)[N+]3=C(c5ccc[nH]5)C=CC3=C4)c2)cs1)C1CCCCC1 (centres unmarked) [IAP Tracer]

Source: paper PMC9204419, “A Toolbox for the Generation of Chemical Probes for Baculovirus IAP Repeat Containing Proteins” (Frontiers in Cell and Developmental Biology, 2022)
